According to ChEMBL document CHEMBL3813593, “Design, synthesis and biological evaluation of 4-aminopyrimidine-5-cabaldehyde oximes as dual inhibitors of c-Met and VEGFR-2” (Bioorg Med Chem, 2016):
pIC50: −log10 of the molar value.

Legend:
[1] = Lipophilicity, log P of compound by shake flask method; format: physicochemical; conditions: octanol/water
[2] = system: HUVEC; assay: Antiproliferative activity against recombinant human VEGF-stimulated HUVEC after 120 hrs by CCK8 assay; format: functional, cell-based
[3] = cells; conditions: Mus musculus, BaF3, 72 h
[4] = biological target: T1, Vascular endothelial growth factor receptor 2 (Homo sapiens, UniProt P35968); assay: Inhibition of VEGFR2 (unknown origin)
[5] = biological target: Hepatocyte growth factor receptor (Homo sapiens, UniProt P08581); assay: Inhibition of recombinant c-Met (unknown origin) using poly (Glu, Tyr) 4:1 as substrate incubated for 60 mins by ELISA
[6] = biological target: T1, Vascular endothelial growth factor receptor 2; assay: Inhibition of recombinant VEGFR2 (unknown origin) using poly (Glu, Tyr) 4:1 as substrate incubated for 60 mins by ELISA

T1 sequence (P35968 whole entry): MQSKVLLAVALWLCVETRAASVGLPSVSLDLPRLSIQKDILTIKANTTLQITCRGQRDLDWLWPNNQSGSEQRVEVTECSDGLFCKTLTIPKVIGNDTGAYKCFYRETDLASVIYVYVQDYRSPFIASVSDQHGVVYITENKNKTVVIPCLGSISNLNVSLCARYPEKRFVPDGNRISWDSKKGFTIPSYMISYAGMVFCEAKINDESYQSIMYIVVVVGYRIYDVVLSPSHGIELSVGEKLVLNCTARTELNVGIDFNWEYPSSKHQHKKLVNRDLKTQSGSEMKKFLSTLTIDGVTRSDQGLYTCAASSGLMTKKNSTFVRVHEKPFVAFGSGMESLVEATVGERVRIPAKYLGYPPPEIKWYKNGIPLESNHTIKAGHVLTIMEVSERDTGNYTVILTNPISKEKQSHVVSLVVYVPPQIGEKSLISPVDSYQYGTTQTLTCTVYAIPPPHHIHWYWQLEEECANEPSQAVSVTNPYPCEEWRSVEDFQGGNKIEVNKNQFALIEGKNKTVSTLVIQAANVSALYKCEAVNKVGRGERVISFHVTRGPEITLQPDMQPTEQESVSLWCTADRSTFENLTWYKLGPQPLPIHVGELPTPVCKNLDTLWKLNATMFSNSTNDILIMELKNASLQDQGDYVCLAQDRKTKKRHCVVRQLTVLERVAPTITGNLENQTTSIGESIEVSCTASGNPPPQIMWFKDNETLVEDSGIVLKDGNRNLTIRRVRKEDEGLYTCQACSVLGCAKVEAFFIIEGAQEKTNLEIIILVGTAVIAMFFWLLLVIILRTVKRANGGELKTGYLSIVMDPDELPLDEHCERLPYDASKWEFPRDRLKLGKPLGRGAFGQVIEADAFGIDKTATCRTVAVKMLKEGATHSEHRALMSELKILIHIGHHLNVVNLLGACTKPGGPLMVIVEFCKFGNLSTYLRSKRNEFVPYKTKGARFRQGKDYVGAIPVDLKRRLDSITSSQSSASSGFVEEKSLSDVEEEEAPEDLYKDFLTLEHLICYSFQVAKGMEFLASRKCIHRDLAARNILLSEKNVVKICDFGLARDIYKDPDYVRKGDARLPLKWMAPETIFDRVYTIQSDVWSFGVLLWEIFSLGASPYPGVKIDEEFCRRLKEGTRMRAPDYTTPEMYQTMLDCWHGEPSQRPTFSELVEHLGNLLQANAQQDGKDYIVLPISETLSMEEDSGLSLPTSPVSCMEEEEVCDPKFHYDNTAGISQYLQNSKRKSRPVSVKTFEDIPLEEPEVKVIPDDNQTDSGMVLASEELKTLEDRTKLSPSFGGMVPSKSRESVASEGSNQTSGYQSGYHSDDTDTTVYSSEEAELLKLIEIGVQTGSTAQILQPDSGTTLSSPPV
Hepatocyte growth factor receptor, sequence (P08581 whole entry): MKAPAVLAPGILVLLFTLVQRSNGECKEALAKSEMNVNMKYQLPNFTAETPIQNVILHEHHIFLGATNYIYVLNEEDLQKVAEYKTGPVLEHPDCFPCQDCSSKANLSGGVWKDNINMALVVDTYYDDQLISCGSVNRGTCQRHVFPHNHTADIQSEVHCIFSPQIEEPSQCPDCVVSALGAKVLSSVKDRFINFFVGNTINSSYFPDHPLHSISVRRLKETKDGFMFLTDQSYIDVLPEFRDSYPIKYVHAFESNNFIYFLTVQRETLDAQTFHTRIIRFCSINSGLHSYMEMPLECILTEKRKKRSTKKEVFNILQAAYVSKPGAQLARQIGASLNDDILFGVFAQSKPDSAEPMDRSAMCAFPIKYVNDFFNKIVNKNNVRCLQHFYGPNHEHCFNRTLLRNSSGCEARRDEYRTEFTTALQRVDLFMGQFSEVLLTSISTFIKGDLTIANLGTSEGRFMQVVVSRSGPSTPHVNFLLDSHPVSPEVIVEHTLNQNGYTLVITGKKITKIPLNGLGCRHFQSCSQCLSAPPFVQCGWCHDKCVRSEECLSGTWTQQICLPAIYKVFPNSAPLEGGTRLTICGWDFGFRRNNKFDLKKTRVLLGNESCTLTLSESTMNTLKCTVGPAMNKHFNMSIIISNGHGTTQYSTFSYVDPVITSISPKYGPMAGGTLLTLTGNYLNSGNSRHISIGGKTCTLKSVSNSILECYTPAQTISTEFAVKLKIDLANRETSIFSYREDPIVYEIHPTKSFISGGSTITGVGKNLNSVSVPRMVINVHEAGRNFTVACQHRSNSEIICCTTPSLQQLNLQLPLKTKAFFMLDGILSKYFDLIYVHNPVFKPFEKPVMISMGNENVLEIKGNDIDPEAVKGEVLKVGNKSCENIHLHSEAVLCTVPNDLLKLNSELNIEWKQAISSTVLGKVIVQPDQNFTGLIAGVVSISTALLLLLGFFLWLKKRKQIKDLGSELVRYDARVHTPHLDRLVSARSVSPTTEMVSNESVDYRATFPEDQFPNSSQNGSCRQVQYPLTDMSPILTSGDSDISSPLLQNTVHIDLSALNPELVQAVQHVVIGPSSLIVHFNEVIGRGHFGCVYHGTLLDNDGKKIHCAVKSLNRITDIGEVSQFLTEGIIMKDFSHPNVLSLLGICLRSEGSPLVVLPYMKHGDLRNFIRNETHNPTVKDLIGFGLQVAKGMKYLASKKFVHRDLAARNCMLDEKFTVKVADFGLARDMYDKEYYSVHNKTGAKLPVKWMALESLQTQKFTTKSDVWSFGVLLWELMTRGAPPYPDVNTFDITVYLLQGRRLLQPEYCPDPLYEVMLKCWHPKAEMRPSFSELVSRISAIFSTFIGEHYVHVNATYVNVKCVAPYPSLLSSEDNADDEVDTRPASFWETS

## CN(C)CCCO/N=C/c1c(N)ncnc1Oc1ccc(NC(=O)C2(C(=O)Nc3ccc(F)cc3)CC2)cc1F
[1]; read-out: logP
  logP: 3.23
[2]
  pIC50: 6.96
[3]
  pIC50: 7.05

## Nc1ncnc(Oc2ccc(NC(=O)C3(C(=O)Nc4ccc(F)cc4)CC3)cc2F)c1/C=N/OCC(=O)N1CCOCC1
[1]; read-out: logP
  logP: 2.1
[3]
  pIC50: 6.40

## Nc1ncnc(Oc2ccc(NC(=O)C3(C(=O)Nc4ccc(F)cc4)CC3)cc2F)c1/C=N/OCCCN1CCOCC1
[1]; read-out: logP
  logP: 2.98
[2]
  pIC50: 6.37
[3]
  pIC50: 6.73

## Nc1ncnc(Oc2ccc(NC(=O)C3(C(=O)Nc4ccc(F)cc4)CC3)cc2F)c1/C=N/OCCN1CCCC1
[1]; read-out: logP
  logP: 3.5
[2]
  pIC50: 6.77
[3]
  pIC50: 6.79

## C#CCO/N=C/c1c(N)ncnc1Oc1ccc(NC(=O)C2(C(=O)Nc3ccc(F)cc3)CC2)cc1F
[1]; read-out: logP
  logP: 3.34
[3]
  pIC50: 6.28

## Nc1ncnc(Oc2ccc(NC(=O)C3(C(=O)Nc4ccc(F)cc4)CC3)cc2F)c1/C=N/O
[1]; read-out: logP
  logP: 2.62
[2]
  pIC50: 6.59
[3]
  pIC50: 6.71

## Nc1ncnc(Oc2ccc(NC(=O)C3(C(=O)Nc4ccc(F)cc4)CC3)cc2F)c1/C=N/OCc1ccccc1
[1]; read-out: logP
  logP: 4.45
[3]
  pIC50: 6.25

## CC(O)CO/N=C/c1c(N)ncnc1Oc1ccc(NC(=O)C2(C(=O)Nc3ccc(F)cc3)CC2)cc1F (centres undefined)
[1]; read-out: logP
  logP: 2.75
[3]
  pIC50: 6.59

## Nc1ncnc(Oc2ccc(NC(=O)C3(C(=O)Nc4ccc(F)cc4)CC3)cc2F)c1/C=N/OCC(O)CN1CCOCC1 (centres undefined)
[1]; read-out: logP
  logP: 2.02
[2]
  pIC50: 6.14
[3]
  pIC50: 6.80

## CO/N=C/c1c(N)ncnc1Oc1ccc(NC(=O)C2(C(=O)Nc3ccc(F)cc3)CC2)cc1F
[1]; read-out: logP
  logP: 3.04
[2]
  pIC50: 6.49
[3]
  pIC50: 6.78

## C=CCO/N=C/c1c(N)ncnc1Oc1ccc(NC(=O)C2(C(=O)Nc3ccc(F)cc3)CC2)cc1F
[1]; read-out: logP
  logP: 3.65
[3]
  pIC50: 6.21

## Nc1ncnc(Oc2ccc(NC(=O)C3(C(=O)Nc4ccc(F)cc4)CC3)cc2F)c1/C=N/OC1CCCCC1
[1]; read-out: logP
  logP: 4.69
[3]
  pIC50: 6.06

## Nc1ncnc(Oc2ccc(NC(=O)C3(C(=O)Nc4ccc(F)cc4)CC3)cc2F)c1/C=N/OCCO
[1]; read-out: logP
  logP: 2.37
[3]
  pIC50: 6.70

## COc1cc2nccc(Oc3ccc(NC(=O)C4(C(=O)Nc5ccc(F)cc5)CC4)cc3)c2cc1OC [CABOZANTINIB]
[1]
  logP: 4.28

## N/N=C/c1c(N)ncnc1Oc1ccc(NC(=O)C2(C(=O)Nc3ccc(F)cc3)CC2)cc1F
[1]; read-out: logP
  logP: 2.25
[3]
  pIC50: 6.12

## COCCCO/N=C/c1c(N)ncnc1Oc1ccc(NC(=O)C2(C(=O)Nc3ccc(F)cc3)CC2)cc1F
[1]; read-out: logP
  logP: 3.18
[3]
  pIC50: 6.61

## Nc1ncnc(Oc2ccc(NC(=O)C3(C(=O)Nc4ccc(F)cc4)CC3)cc2F)c1/C=N/OC1CCCC1
[1]; read-out: logP
  logP: 4.27
[3]
  pIC50: 6.13

## CCCCO/N=C/c1c(N)ncnc1Oc1ccc(NC(=O)C2(C(=O)Nc3ccc(F)cc3)CC2)cc1F
[1]; read-out: logP
  logP: 4.2
[3]
  pIC50: 6.20

## Nc1ncnc(Oc2ccc(NC(=O)C3(C(=O)Nc4ccc(F)cc4)CC3)cc2F)c1/C=N/OCCCN1CCCC1
[1]; read-out: logP
  logP: 3.82
[2]
  pIC50: 6.66
[3]
  pIC50: 6.92

## COc1cc2c(Oc3ccc(NC(=O)C4(C(=O)Nc5ccc(F)cc5)CC4)cc3F)ccnc2cc1OCCCN1CCOCC1 [FORETINIB]
[1]; read-out: logP
  logP: 4.28

## CC(C)(C)OC(=O)N/N=C/c1c(N)ncnc1Oc1ccc(NC(=O)C2(C(=O)Nc3ccc(F)cc3)CC2)cc1F
[1]; read-out: logP
  logP: 3.7
[3]
  pIC50: 6.49

## CO/N=C/c1c(N)ncnc1Oc1ccc2[nH]ccc2c1
[4]
  pIC50: 6.84

## CCO/N=C/c1c(N)ncnc1Oc1ccc(NC(=O)C2(C(=O)Nc3ccc(F)cc3)CC2)cc1F
[1]; read-out: logP
  logP: 3.41
[3]
  pIC50: 6.67

## CCOC(=O)CO/N=C/c1c(N)ncnc1Oc1ccc(NC(=O)C2(C(=O)Nc3ccc(F)cc3)CC2)cc1F
[1]; read-out: logP
  logP: 3.15
[3]
  pIC50: < 6.00

## CNc1ncnc(Oc2ccc(NC(=O)C3(C(=O)Nc4ccc(F)cc4)CC3)cc2F)c1/C=N/OC
[1]; read-out: logP
  logP: 3.52
[5]
  pIC50: < 5.00
[6]
  pIC50: < 5.00
[3]
  pIC50: < 6.00

## Nc1ncnc(Oc2ccc(NC(=O)C3(C(=O)Nc4ccc(F)cc4)CC3)cc2F)c1/C=N/OCCCO
[1]; read-out: logP
  logP: 2.67
[2]
  pIC50: 6.68
[3]
  pIC50: 6.96
